From US20150057350A1, “FIBROSIS BIOMARKERS AND METHODS OF USING SAME” (ABBOTT LABORATORIES, priority 2013, published 2015) come the findings set out here.

What all share (type): in vivo
Assay [1] concerns Matrix Metalloproteinase-10 (MMP-10). In words: 10-day bed rest study in healthy elderly subjects: circulating MMP-10 (RBM Human DiscoveryMAP, serum). An excerpt: (§1) The following inclusion criteria were verified at screening: male or female ≧60 to ≦79 years of age; body mass index (BMI) ≧20 but ≦35; ambulatory with a Short Performance Physical Battery (SPPB) score of ≧9 (fully functional with no mobility limitations); and compliance with prescribed activity level. Exclusion criteria ruled out subjects who had undergone recent major surgery, had active malignancy (excepting basal or squamous cell skin carcinoma or carcinoma in situ of the uterine cervix); history of Deep Vein Thrombosis (DVT) or other hypercoagulation disorders; refractory anemia; history of diabetes or fasting blood glucose value >126 mg/dL; presence of partial or full artificial limb; kidney disease or serum creatinine >1.4 mg/dL; evidence of cardiovascular disease assessed during resting or exercise EKG; untreated hypothyroidism; liver disease; chronic or acute GI disease; uncontrolled severe diarrhea, nausea or vomiting; were actively pursuing weight loss; were enrolled in other clinical trials; could not refrain from smoking over the bed rest study period; or could not discontinue anticoagulant therapy over bed rest period. Potential subjects were also excluded if they were taking any medications known to affect protein metabolism (e.g., progestational agents, steroids, growth hormone, dronabinol, marijuana, HMB, free amino acid supplements, dietary supplements to aid weight loss).
(§2) The 24 healthy subjects initially involved in the study were randomized into two groups. Subjects in the treatment group received two β-hydroxy-β-methylbutyrate (HMB) sachets containing 1.5 grams of Ca-HMB (TSI, Salt Lake City, Utah), 4 grams of maltodextrin, and 200 milligrams of calcium with additional sweetener and flavoring agents. Subjects in the control group received two control sachets that were identical to the HMB sachets with the exclusion Ca-HMB. This study was a double-blinded study. Neither the investigators nor the subjects were informed of the identity of any of the study products during the clinical portion of the study. Subjects were instructed to consume a sachet twice daily by mixing a sachet into a non-caloric, non-caffeinated, non-carbonated, non-milk-based beverage of their choice. Treatment with HMB or Control was initiated 5 days prior to bed rest and was continued until the end of the rehabilitation period.
(§3) For diet stabilization over the pre-bed rest and bed rest periods, subjects were fed a metabolically controlled diet providing the RDA for protein intake (0.8 g protein/kg body weight per day). Total calorie needs were estimated using the Harris-Benedict equation for resting energy expenditure according to the following equation: For women=[655+(9.56×body weight in kg)+(1.85×height in cm)−(4.68×age in years)]×AF, and, For men=[66+(13.7×body weight in kg)+(5×height in cm)−([…]]×AF, where AF=activity factor of 1.6 for the ambulatory period and 1.35 for the bed rest period. Given the total calorie and protein intakes, the remainder of the diet was manipulated to keep the non-protein calories at about 60% from carbohydrates and 40% from fat. Water was provided ad libitum.
(§4) After a diet stabilization of 5 days (ambulatory period), subjects remained in bed continuously for 10 days. While confined to bed rest, subjects were allowed to use the bedside commode for urination or were taken in a wheelchair for toileting. Subjects were given the option of taking a sponge bath or showering in a wheelchair. Prophylactic measures were taken to detect and prevent deep vein thrombosis including a blood d-dimer test followed by an ultrasound examination if d-dimer test was positive, passive range of motion exercise during bed rest, the use of TED hose and SCD over the bed rest period. Subjects were offered medication to help mitigate reflux problems associated with being supine. Subjects were constantly monitored by nursing staff and received a daily physical examination by the study physician. […]

Assay [2] has as its system Matrix Metalloproteinase-3 (MMP-3). The assay can be described thus: 10-day bed rest study in healthy elderly subjects: circulating MMP-3 (RBM Human DiscoveryMAP, serum).
Description: as §1, §2, §3, §4

The subject of a further assay is development of fibrosis. The assay can be described thus: 10-day bed rest study: all 3 fibrosis markers taken together. As to conditions: prolonged period of physical inactivity, human subject.
Description: as §1, with “Potential subjects were also excluded if they were taking any medications known to affect protein metabolism (e.g., progestational agents, steroids, growth hormone, dronabinol, marijuana, HMB, free amino acid supplements, dietary supplements to aid weight loss).” left out
(§5) After a diet stabilization of 5 days (ambulatory period), subjects remained in bed continuously for 10 days. […] Subjects were constantly monitored by nursing staff and received a daily physical examination by the study physician. […]

Assay [3] concerns Matrix Metalloproteinase-1 (MMP-1). In words: 10-day bed rest study in healthy elderly subjects: circulating MMP-1 (RBM Human DiscoveryMAP, serum).
Description: as §1, §2, §3, §5

Where [4] appears, read: after 10 days of bed rest, 10 HMB treated subjects.
Where [5] appears, read: post- minus pre-bed rest, 10 days, n = 10, ANCOVA vs control p < 0.0001.
Setting [6] is: serum, Day 1 of bed rest, after 5 days of Ca-HMB 1.5 g sachet twice daily, n = 10.
The mark [7] stands for this setting: serum, end of 10 days bed rest, Ca-HMB 1.5 g sachet twice daily, n = 10.

With `CC(C)(O)CC(=O)O` [HMB, β-hydroxy-β-methylbutyric acid], in assay [1] (setting [4]), the “average decrease in blood levels of MMP-10” value is 0.09 ng/mL and the “decrease in blood levels of MMP-10” value was 12%. Further, in assay [1] (setting [5]), the “MMP-10 Change” value was -0.09 ± 0.04 ng/mL. The “effect on the decrease in blood levels of MMP-10 that occurs in untreated control subjects” value in assay [1] (prolonged bed rest, vs control) is given as “reduces or attenuates the decrease”. For the same compound, the “MMP-10 Pre-bed rest Mean” value in assay [1] (setting [6]) is 0.60 ng/mL. Further, the “MMP-10 Post-bed rest Mean” value in assay [1] (setting [7]) is 0.51 ng/mL. In addition, in assay [2] (setting [4]), the “average decrease in blood levels of MMP-3” value came to 2.71 ng/mL and the “change (decrease) in blood levels of MMP-3” value is 25%. The “MMP-3 Change” value in assay [2] (post- minus pre-bed rest, 10 days, n = 10, ANCOVA vs control p = 0.0007) was -2.71 ± 0.78 ng/mL. The “effect on the decrease in blood levels of MMP-3 that occurs in untreated control subjects” value in assay [2] (prolonged bed rest, vs control) was “reduces or attenuates the decrease”. Further, the “MMP-3 Pre-bed rest Mean” value in assay [2] (setting [6]) was 10.90 ng/mL. In addition, the “MMP-3 Post-bed rest Mean” value in assay [2] (setting [7]) stood at 8.19 ng/mL. Also, the “effect against development of fibrosis, all 3 markers taken together” value in the assay with development of fibrosis is listed as “protective effect”. Also, the “average increase in circulating levels of MMP-1” value in assay [3] (setting [4]) came out at 2.17 ng/mL. Also, the “MMP-1 Change” value in assay [3] (setting [5]) turned out to be 2.17 ± 1.06 ng/mL. The “effect on the increase in blood levels of MMP-1 that occurs in untreated control subjects” value in assay [3] (prolonged bed rest, vs control) was “enhances the increase”. Moreover, the “MMP-1 Pre-bed rest Mean” value in assay [3] (setting [6]) was determined as 11.29 ng/mL. Moreover, in assay [3] (setting [7]), the “MMP-1 Post-bed rest Mean” value was found to be 13.46 ng/mL.
